In this assay the test system is histiocytic lymphoma (U937). Briefly: cell proliferation assay ([methyl-3H] thymidine incorporation), U937. In kind it is cell-based, human. The note with it: for activity at 6 µM: Homo sapiens, U-937, 72 hours in culture, n=6, read-out: U937: percentage of control 3[H] Thymidine incorporation. As to the method: (§1) Two human cell lines namely a histiocytic lymphoma (U937) and a melanoma (RPMI-7951) were seeded into 30 mm^2 tissue culture wells, in the appropriate culture medium supplemented with 10% fetal calf serum at a density of 250 cells/mm^2. Six hours later the test compounds were added in the same culture medium to the cells to give a final concentration of 6 μM. Control wells contained cells supplemented with the same culture medium containing the equivalent amount of drug vehicle, which in this case was DMSO at a final concentration of 0.08%. After 72 hours in culture the cells were pulsed for 3 hours with [methyl-^3[H] Thymidine] (2 μCi/ml) and then harvested onto filter mats and DNA associated radioactivity counted. Results are expressed as percentage of control ^3[H] Thymidine incorporation (n=6±1 stdv).
Further examples were tested in the U937 assay described above at 6 μM and the results, expressed as percentage of control ^3[H] Thymidine incorporation (n=6±1 stdv), are set out in the following Table 2.
as §1, with “A” for “Two”, “line,” for “lines”, “(U937), was” for “(U937) and a melanoma (RPMI-7951) were”, “30MM^2” for “30 mm^2”, “cellS/MM^2.” for “cells/mm^2.”, “were” for “are”
For orientation: Dividing cells build labelled thymidine or BrdU into new DNA.

Where two headings read alike, the source gives them in different places.

`CCC[C@H](C(=O)NO)[C@@H](CC(C)C)C(=O)N[C@@H](Cc1ccccc1)C(=O)OC(C)C` [Example 21, 2S-(3S-Hydroxycarbamoyl-2R-isobutyl-hexanoylamino)-3-phenylpropionic acid isopropyl ester]: the activity at 6 µM (Table 2, 6 μM) worked out at 1%. For the compound `C#CC[C@@H](C(=O)N[C@@H](Cc1ccccc1)C(=O)OC1CCCC1)[C@H](O)C(=O)NO` [Example 38, 2S-[2R-(1S-Hydroxy-hydroxycarbamoyl-methyl)-pent-4-ynoylamino]-3-phenylpropionic acid cyclopentyl ester], the activity at 6 µM (Table 2, 6 μM) is 37%. In the case of `CC(C)C[C@@H](C(=O)N[C@@H](Cc1ccccc1)C(=O)OC1CCCC1)[C@@H](C(=O)NO)C1CCCC1` [Example 37, 2S-[2R-(1S-Cyclopentyl-hydroxycarbamoyl-methyl)-4-methyl-pentanoylamino]-3-phenyl-propionic acid cyclopentyl ester], the activity at 6 µM (Table 2, 6 μM) is 0%. `CC(C)C[C@@H](C(=O)N[C@@H](Cc1ccccc1)C(=O)OC(C)C)[C@H](CSc1cccs1)C(=O)NO` [Example 17, 2S-{2R-[1S-Hydroxycarbamoyl-2-(thiophen-2-ylsulphanyl)-ethyl]-4-methyl-pentanoylamino}-3-phenyl-propionic acid isopropyl ester]: the activity at 6 µM (Table 2, 6 μM) was 0%.

On to `C=CC[C@H](C(=O)NO)[C@@H](CC(C)C)C(=O)N[C@@H](Cc1ccccc1)C(=O)OC1CCCC1` [Example 20, 2S-(3S-Hydroxycarbamoyl-2R-isobutyl-hex-5-enoylamino)-3-phenylpropionic acid cyclopentyl ester], for which the activity at 6 µM (Table 2, 6 μM) was found to be 0%. Regarding `COC(=O)[C@@H](Cc1ccccc1)NC(=O)[C@@H](CC(C)C)[C@@H](C)C(=O)NO` [Example 4, 3S-(2-Phenyl-1R-methylcarboxy-ethylcarbamoyl)-2R, 5-dimethylhexanohydroxamic acid, reference compound], the activity at 6 µM (Table 1, final concentration 6 μM, 3 hours pulse) was found to be 93%. Consider `CCCCCC[C@H](CC(=O)NO)C(=O)N[C@@H](Cc1ccccc1)C(=O)OC(C)C` [Example 10, 2S-(2R-Hydroxycarbamoylmethyl-octanoylamino)-3-phenyl-propionic acid isopropyl ester], for which the activity at 6 µM (Table 2, 6 μM) came out at 1%. Take `CC(C)C[C@@H](C(=O)N[C@@H](Cc1ccccc1)C(=O)OC(C)C)[C@H](C)C(=O)NO` [Example 9, 2S-[2R-(1S-Hydroxycarbamoyl-ethyl)-4-methyl-pentanoylamino]-3-phenyl-propionic acid isopropyl ester]: under “Table 2, 6 μM”, the activity at 6 µM was found to be 8%. As for `CO[C@H](C(=O)NO)[C@@H](CC(C)C)C(=O)N[C@H](C(=O)OC(C)C)C(C)(C)C` [Example 24, 2S-[2R-(S-Hydroxycarbamoyl-methoxy-methyl)-4-methyl-pentanoylamino]-3,3-dimethyl-butyric acid isopropyl ester], the activity at 6 µM (Table 2, 6 μM) amounted to 50%.

Consider `C=CC[C@H](C(=O)NO)[C@@H](CC(C)C)C(=O)N[C@H](C(=O)OC(C)C)C(C)(C)C` [Example 22, 2S-(3S-Hydroxycarbamoyl-2R-isobutyl-hex-5-enoylamino)-3,3-dimethyl-butyric acid isopropyl ester], for which the activity at 6 µM (Table 2, 6 μM) worked out at 51%. As for `C=CC[C@H](C(=O)NO)[C@@H](CC(C)C)C(=O)N[C@H](C(=O)OC1CCCC1)C(C)CC` (stereo partly drawn) [Example 12, 2S-(3S-Hydroxycarbamoyl-2R-isobutyl-hex-5-enoylamino)-3S-methyl-pentanoic acid cyclopentyl ester], the activity at 6 µM (Table 2, 6 μM) was 10%.

Regarding `C=CC[C@H](C(=O)NO)[C@@H](CC(C)C)C(=O)N[C@@H](Cc1ccccc1)C(=O)OC1CCN(C)CC1` [Example 29, 2S-(3S-Hydroxycarbamoyl-2R-isobutyl-hex-5-enoylamino)-3-phenylpropionic acid 1-methyl-piperidin-4-yl ester], where the note is “Table 2, 6 μM”, the activity at 6 µM was determined as 49%. Take `C=CC[C@H](C(=O)NO)[C@@H](CC(C)C)C(=O)N[C@@H](Cc1ccccc1)C(=O)OC1CCOC1` (stereo partly drawn) [Example 35, 2S-(3S-Hydroxycarbamoyl-2R-isobutyl-hex-5-enoylamino)-3-phenylpropionic acid tetrahydro-furan-3(R, S)-yl ester]: where the note is “Table 2, 6 μM”, the activity at 6 µM worked out at 14%. For the compound `C=CC[C@H](C(=O)NO)[C@@H](CC(C)C)C(=O)N[C@@H](CC1CCCCC1)C(=O)OC1CCCC1` [Example 28, 3-Cyclohexyl-2S-(3S-hydroxycarbamoyl-2R-isobutyl-hex-5-enoylamino)-propionic acid cyclopentyl ester], the activity at 6 µM (Table 2, 6 μM) was 0%. For `O=c1[nH]cc(F)c(=O)[nH]1` [5-fluorouracil, reference compound], where the note is “6 μM, comparison compound”, the “activity in the U937 assay relative to that observed with the vehicle alone” value turned out to be 50%. For `COCCOC(=O)[C@@H](Cc1ccccc1)NC(=O)[C@H](CC(C)C)[C@H](C)C(=O)NO` [Example 14, 2S-[2R-(1S-Hydroxycarbamoyl-ethyl)-4-methyl-pentanoylamino]-3-phenyl-propionic acid 2-methoxy-ethyl ester], the activity at 6 µM (Table 2, 6 μM) amounted to 33%. Take `C=CC[C@H](C(=O)NO)[C@@H](CC(C)C)C(=O)N(C)[C@@H](Cc1ccccc1)C(=O)OC(C)C` [Example 25, 2S-{(3S-Hydroxycarbamoyl-2R-isobutyl-hex-5-enoyl)-methyl-amino)-3-phenylpropionic acid isopropyl ester]: under “Table 2, 6 μM”, the activity at 6 µM stood at 34%. With `C=CC[C@H](C(=O)NO)[C@@H](CC(C)C)C(=O)N[C@@H](Cc1ccccc1)C(=O)OC(CC)CC` [Example 30, 2S-(3S-Hydroxycarbamoyl-2R-isobutyl-hex-5-enoylamino)-3-phenylpropionic acid 1-ethyl-propyl ester], the activity at 6 µM (Table 2, 6 μM) was found to be 6%.

Turning to `C=CC[C@H](C(=O)NO)[C@@H](CC(C)C)C(=O)N[C@@H](Cc1ccccc1)C(=O)O[C@H](C)CCC` [Example 34, 2S-(3S-Hydroxycarbamoyl-2R-isobutyl-hex-5-enoylamino)-3-phenylpropionic acid 1R-methyl-butyl ester], the activity at 6 µM (Table 2, 6 μM) was 3%. On to `C=CC[C@H](C(=O)NO)[C@@H](CC(C)C)C(=O)N[C@H](C(=O)OC1CCCC1)C(C)(C)C` [Example 36, 2S-(3S-Hydroxycarbamoyl-2R-isobutyl-hex-5-enoylamino)-3,3-dimethyl-butyric acid cyclopentyl ester], for which the activity at 6 µM (Table 2, 6 μM) was found to be 51%. On the same count and under the same terms, as for `CC(C)C[C@H](CC(=O)NO)C(=O)N[C@@H](Cc1ccccc1)C(=O)OC(C)C` [Example 7, 2S-(2R-Hydroxycarbamoylmethyl-4-methyl-pentanoylamino)-3-phenyl-propionic acid isopropyl ester], the figure is 0%; as for `C=CC[C@H](C(=O)NO)[C@@H](CC(C)C)C(=O)N[C@@H](Cc1ccccc1)C(=O)OCc1ccccc1` [Example 26, 2S-(3S-Hydroxycarbamoyl-2R-isobutyl-hex-5-enoylamino)-3-phenylpropionic acid benzyl ester], 0%.

Regarding `C=CC[C@H](C(=O)NO)[C@@H](CC(C)C)C(=O)N[C@@H](Cc1ccccc1)C(=O)OC1CCCCC1` [Example 32, 2S-(3S-Hydroxycarbamoyl-2R-isobutyl-hex-5-enoylamino)-3-phenylpropionic acid cyclohexyl ester], the activity at 6 µM (Table 2, 6 μM) was 0%. Take `C=CC[C@H](C(=O)NO)[C@@H](CC(C)C)C(=O)N[C@@H](Cc1cccnc1)C(=O)OC1CCCC1` [Example 39, 2S-(3S-Hydroxycarbamoyl-2R-isobutyl-hex-5-enoylamino)-3-pyridin-3-yl-propionic acid cyclopentyl ester]: under “Table 2, 6 μM”, the activity at 6 µM was 26%. `CCC[C@H](C(=O)NO)[C@@H](CC(C)C)C(=O)N[C@@H](C(=O)OCCOC)C(C)(C)C` [Example 15, 2S-(3S-Hydroxycarbamoyl-2R-isobutyl-hexanoylamino)-3,3-dimethyl-butyric acid 2-methoxy-ethyl ester]: the activity at 6 µM (Table 2, 6 μM) turned out to be 19%. As to `O=C(OC1CCCC1)[C@H](Cc1ccccc1)NC(=O)[C@H](CC#Cc1ccccc1Cl)[C@H](O)C(=O)NO` [Example 42, 2S-[5-(2-Chlorophenyl)-2R-(1S-hydroxy-hydroxycarbamoyl-methyl)-pent-4-ynoylamino]-3-phenylpropionic acid cyclopentyl ester], the activity at 6 µM (Table 2, 6 μM) is 0%. With `CC(C)C[C@@H](C(=O)N[C@@H](Cc1ccccc1)C(=O)OC(C)C)[C@H](O)C(=O)NO` [Example 8, 2S-[2R-(S-Hydroxy-hydroxycarbamoyl-methyl)-4-methyl-pentanoylamine]-3-phenyl-propionic acid isopropyl ester], under “Table 2, 6 μM”, the activity at 6 µM worked out at 1%.
